What all share (format): cell-based, Pseudomonas aeruginosa
Test [1] relates to nonswarming P. aeruginosa mutant rhlA. Briefly: Swarming motility of nonswarming rhlA mutant on soft agar (reactivation / agonist assay). As to conditions: for Swarming motility of rhlA mutant: 85 μM in soft agar (0.5%); for Reactivation of swarming motility of rhlA mutant: concentration not given; for Concentration of activity reversal for swarming promotion of rhlA mutant (transition concentration): soft agar. The text has this: Using nonswarming mutant to screen for swarming agonists and wild type P. aeruginosa for swarming antagonists. The transposon mutant, rhlA (genotype, rhlA-E08:ISphoA/hah)39 of P. aeruginosa (PAO1), that impairs the gene that is responsible for synthesizing rhamnolipids is completely incapable of a swarming motility. […] Based on this inference, a rhlA mutant was used in a swarming experiment to screen the saccharide-hydrocarbons for agonists that can reactivate the swarming motility of rhlA.
(§1) Swarm agar plates were based on M8 medium supplemented with 0.2% glucose, 0.5% casamino acid, 1 mM MgSO4 and […]. 17 For each set of experiment all the swarm plates were poured from same batch of agar and allowed to dry for 1 h before inoculation of bacteria. Bacterial culture (3 μl) (wild type PAO1 or rhlA mutant) with OD600 between […] was inoculated on the solidified agar plates. Swarm agar plates were incubated at 37° C. for 12 h and then incubated for additional 12 h at room temp. Chronological images of swarm plates were taken using a camera. To measure swarming area, sizes of the petridish in all swarming images were adjusted to a pre-assigned diameter and images were printed on copying paper (Xerox-business 4200). Weight of a 1 cm^2 copy paper square was roughly ˜8.0 mg. swarming images on the copy paper were cut and weighed, the swarm area was calculated by dividing the weight of image by weight of 1 cm^2 square (8 mg).
(§2) Swarm agar plates were made using M8 medium supplemented with 0.2% glucose, 0.5% casamino acid, 1 mM MgSO4 and solidified with 0.5% Bacto agar. 24 Bacterial culture with OD600 between 0.4 to 0.6 was inoculated as 3 μl aliquots. Swarm agar plates were incubated at 37° C. for 12 h and then incubated for additional 12 h at rt. For each set of experiment all the swarm plates were poured from same batch of agar and allowed to dry for 1 h before inoculation of bacteria.

Test [2] has as its system wild type PAO1. Briefly: Swarming motility of wild type PAO1 on soft agar (antagonist assay). As to conditions: for Swarming motility of wild type PAO1: 85 μM in soft agar; for Effect on PAO1 swarming: concentration not given; for Concentration of activity reversal for swarming inhibition of PAO1 (transition concentration): soft agar. The method, then:
In contrast, the wild type P. aeruginosa produces the rhamnolipids and is capable of swarming on soft agar gel (˜0.5% agar). […] We note that saccharide hydrocarbons may also promote the swarming motility, but such promotions are less unambiguous than the inhibition for wild type PAO1. Such promotion will be unambiguous in the agonist assay using the nonswarming mutant rhlA.
as §1, §2

Test [3] has as its system PAO1 biofilm. Briefly: Crystal violet based static biofilm inhibition assay, DSHs in LB media (Examples 2 and 4). Conditions: for Anti-biofilm activity (biofilm inhibition): concentration not given; for Inhibition of PAO1 biofilm formation (surface attached): 160 μM, 24 h, LB media, 160 µM. The method, then: The ability of DSHs was tested to inhibit Pseudomonas aeruginosa adhesion, biofilm and to disperse pre-formed biofilm. To quantify the amount of PAO1/EGFP attached on the surface of micro titer plates with or without the synthesized DSHs, fluorescence emitted by green fluorescent proteins (GFP) was quantified (see supporting info for details). Crystal violet (CV) based static biofilm assay (see supporting info) was used to screen the anti-biofilm potencies of all synthesized agents. Both surface attached (SA) (FIG. 17) and total (SA+air-liquid interface) biofilm of P. aeruginosa was quantified. […] CV assays were also used to quantify the amount of P. aeruginosa biofilm remaining after dispersion experiments (FIG. 19). Initially, all agents were screen for anti-biofilm activities (both inhibition and dispersion) at 160 μM. […] All reported biofilm inhibition results are an average of 4 identical wells.
The effect that DSHs have on the adhesion of PAO1-EGFP on polystyrene surface (microtiter plate) was also examined. PAO1-EGFP is a P. aeruginosa strain that constitutively expresses green fluorescent protein. In the adhesion assays, PAO1-EGFP was grown in microtiter plate for 24-hours in LB-media with (160 μM) or without DSHs. After 24-hours, the fluorescent signal obtained from surface adhered PAO1-EGFP was measured. Percent reduction in fluorescence was calculated by comparing fluorescent signal from PAO1-EGFP grown in LB-media with the signal from wells that had DSHs (FIG. 29A). To study the effect of DSHs on biofilm formation, Pseudomonas aeruginosa (PAO1) was grown in LB-media with (160 μM) or without DSHs at 37° C. under static conditions within wells of microtiter plates. After 24 hours, the surface attached biofilms adhering to the bottom of the wells were stained with crystal-violet dye and the biofilm was quantified by measuring absorbance at 600 nm (OD600). […] Similar to inhibition, the surface attached biofilm after dispersion with DSHs was quantified with crystal-violet staining and absorbance measurement at 600 nm, except that for dispersion, biofilm was first grown for 1 day in just LB-media without any DSHs after which DSHs were added and plates were incubated for additional 24 hours followed by quantification (FIG. 29B).
Crystal violet (CV) based-biofilm inhibition assay. Inhibitory effect of all synthesized disaccharide hydrocarbons on biofilm formation of Pseudomonas aeruginosa (wild type PAO1) was determined by static biofilm inhibition assay using crystal violet staining. Overnight culture of PAO1 were sub cultured in LB media to OD600 of 0.01 and further the OD600 was allowed to reach ˜0.1. The bacterial sub-culture (200 μL) was then added into the wells of a microtiter plate. Predetermined concentrations of DSHs were added to respective wells containing sub culture by pipetting out fixed volume of sterile aqueous stock solutions (except DβL (7), SPOT, (15) and 2-ODαC (17), which were introduced as stocks prepared in H2O […] and EtOH (90:10) solutions). The microtiter plates were then wrapped in GLAD Press n′ Seal® (saran wrap) and further incubated under stationary conditions for 24 h at 37° C. After 24 h incubation, the culture media was discarded by pipetting carefully (without disrupting biofilm), the plate was then washed once with sterile water (200 μL) and allowed to dry at 37° C. for ˜30 mins. Microtiter plates were then stained with 0.1% aqueous solution of crystal violet (CV) (200 μL) at rt for ˜30 mins. Following this, the CV stain was removed and plate was again washed with sterile water (200 μL). Resultant CV stain in the well was then solubilized by adding 100 μL of 30% AcOH solution (in water) and mixing gently by pipetting.

Regarding adamantane dodecyl β-maltoside [ADβM], the “Swarming motility of rhlA mutant” value in test [1] (24 h) is “long, straight and well-defined tendrils”.

On to `CCCCCCCCCCCCCO[C@@H]1O[C@H](CO)[C@@H](O[C@@H]2O[C@H](CO)[C@@H](O)[C@H](O)[C@H]2O)[C@H](O)[C@H]1O` [TβC (5), tridecyl-β-cellobioside], for which, in test [2], the “Concentration at which tendrils were induced in PAO1” value turned out to be 30 µM, the “Effect on PAO1 swarming” value was “induced tendril formation in the swarming pattern of PAO1” and the “Concentration of activity reversal for swarming inhibition of PAO1 (transition concentration)” value is around 20 to 30 µM. Besides, the “Swarming motility of wild type PAO1” value in test [2] (24 h) is “causing significant amount of tendril formation”. Further, in test [1], the “Concentration of first inhibition of rhlA swarming” value is on record as “around 50 μM”, the “Reactivation of swarming motility of rhlA mutant” value is recorded as “activated the swarming motility of rhlA mutant” and the “Concentration of activity reversal for swarming promotion of rhlA mutant (transition concentration)” value is around 40 µM. Moreover, the “Swarming motility of rhlA mutant” value in test [1] (24 h) was “no apparent reactivation of rhlA swarming”. The “Concentration of another activation of rhlA swarming” value in test [1] (after first inhibition) was “about 160 μM”. The “Concentration of activity reversal for swarming promotion of rhlA mutant (transition concentration)” value in test [1] (listed as 5) was 40 µM. Besides, the “Anti-biofilm activity (biofilm inhibition)” value in test [3] is recorded as “did not show significant inhibition of PAO1 biofilm”.

Regarding `C=CCCCCCCCCCO[C@@H]1O[C@H](CO)[C@@H](O[C@@H]2O[C@H](CO)[C@@H](O)[C@H](O)[C@H]2O)[C@H](O)[C@H]1O` [UDβC (10), undecylenyl-β-cellobioside], the “Swarming motility of wild type PAO1” value in test [2] (24 h) is recorded as “no significant effect on the swarming motility”. In addition, the “Effect on PAO1 swarming” value in test [2] is given as “no apparent effect on PAO1 swarming”. Moreover, in test [1] (24 h), the “Swarming motility of rhlA mutant” value is listed as “no significant effect on the swarming motility”. Also, the “Inhibition of PAO1 biofilm formation (surface attached)” value (shortened to “Inhibition of PAO1 biofilm formation”) in test [3] (listed as 10: UDβC) is listed as “lesser potency than DSH with completely saturated aliphatic chain”. For the same molecule, the “Anti-biofilm activity (biofilm inhibition)” value in test [3] was “did not show anti-biofilm activities”.

On to `CCCCCCCCCCCCO[C@@H]1O[C@H](CO)[C@@H](O[C@H]2O[C@H](CO)[C@@H](O)[C@H](O)[C@H]2O)[C@H](O)[C@H]1O` [DβM (1), dodecyl-β-maltoside], for which the “Swarming motility of wild type PAO1” value in test [2] (24 h) is “causing significant amount of tendril formation”. In addition, the “Swarming of wild type PAO1” value in test [2] (110 μM in soft agar, 24 h) is recorded as “did not significantly affect the swarm pattern”. Moreover, the “Effect on PAO1 swarming” value in test [2] is “induced tendril formation in the swarming pattern of PAO1”. For the same molecule, the “Swarming motility of rhlA mutant” value is “strong reactivation of the swarming motility in rhlA mutant” in test [1] (24 h); “long, straight and well-defined tendrils” in test [1] (24 h, listed as DβM). Besides, in test [1] (110 μM in soft agar, 24 h), the “Swarming reactivation of rhlA mutant” value is on record as “fully restored the swarming of rhlA”. For the same molecule, the “Inhibition of PAO1 biofilm formation” value in test [3] (listed as 1: DβM) was 50%.

For `CCCCCCCCC(CO[C@@H]1O[C@H](CO)[C@@H](O[C@H]2O[C@H](CO)[C@@H](O)[C@H](O)[C@H]2O)[C@H](O)[C@H]1O)Cc1ccc(C(C)(C)C)cc1` (stereo partly drawn) [4-tBuBDeβM, 4-tertiary butyl benzyl decyl β-maltoside], in test [1] (24 h), the “Swarming motility of rhlA mutant” value is reported as “swarming motility with without well-defined tendrils”.

On to `CCCCCCCCCCC(CO[C@@H]1O[C@H](CO)[C@@H](O[C@H]2O[C@H](CO)[C@@H](O)[C@H](O)[C@H]2O)[C@H](O)[C@H]1O)Cc1ccc(C)cc1` (stereo partly drawn) [4-MBDβM, 4-methyl benzyl dodecyl β-maltoside], for which, in test [1] (24 h), the “Swarming motility of rhlA mutant” value is “long, straight and well-defined tendrils”.

Turning to `CCCCCCCCCCCCO[C@@H]1O[C@H](CO)[C@@H](O)[C@H](O)[C@H]1O` [DβG (8), dodecyl-β-glucoside], the “Swarming motility of wild type PAO1” value in test [2] (24 h) was “inhibited the swarming motility of wild type PAO1”. Also, the entries for the “Concentration of activity reversal for swarming inhibition of PAO1 (transition concentration)” value in test [2] and in test [2] (listed as 8) were around 50 to 60 µM and 35 to 50 µM, respectively. Also, the “Swarming motility of rhlA mutant” value in test [1] (24 h) is recorded as “no apparent effect on rhlA”. Besides, the “Reactivation of swarming motility of rhlA mutant” value in test [1] is “activated the swarming motility of rhlA mutant”. Also, the “Concentration of activity reversal for swarming promotion of rhlA mutant (transition concentration)” value is around 35 to 50 µM in test [1] and 35 µM in test [1] (listed as 8). For the same molecule, the “Inhibition of PAO1 biofilm formation” value in test [3] (listed as 8: DβG) is “poor anti-biofilm activity”. Moreover, the results for the “Anti-biofilm activity (biofilm inhibition)” value in test [3] and in test [3] (listed as DOG (8)) were “weak anti-biofilm activity” and “did not show significant inhibition of PAO1 biofilm”, respectively.

For `CCCCCCCCCCC(CO[C@@H]1O[C@H](CO)[C@@H](O[C@H]2O[C@H](CO)[C@@H](O)[C@H](O)[C@H]2O)[C@H](O)[C@H]1O)Cc1cc(C)cc(C)c1` (stereo partly drawn) [3,5-DMBDβM, 3,5-dimethyl benzyl dodecyl β-maltoside], the “Swarming motility of rhlA mutant” value in test [1] (24 h) was “long, straight and well-defined tendrils”.

For `CCCCCCCCCCCCO[C@H]1O[C@H](CO)[C@@H](O[C@@H]2O[C@H](CO)[C@@H](O)[C@H](O)[C@H]2O)[C@H](O)[C@H]1O` [DαC (6), dodecyl-α-cellobioside], the “Swarming motility of wild type PAO1” value in test [2] (24 h) was “causing significant amount of tendril formation”. For the same molecule, the “Effect on PAO1 swarming” value in test [2] was “induced tendril formation in the swarming pattern of PAO1”. Further, in test [1] (24 h), the “Swarming motility of rhlA mutant” value is given as “no apparent reactivation of rhlA swarming”.

As to `CCCCCCCCCCCO[C@@H]1O[C@H](CO)[C@@H](O[C@H]2O[C@H](CO)[C@@H](O)[C@H](O)[C@H]2O)[C@H](O)[C@H]1O` [UβM, undecyl β-maltoside], the “Swarming motility of rhlA mutant” value in test [1] (24 h) is listed as “swarming motility with without well-defined tendrils”.

For the molecule `CCCCCCCCCCO[C@@H]1O[C@H](CO)[C@@H](O[C@H]2O[C@H](CO)[C@@H](O)[C@H](O)[C@H]2O)[C@H](O)[C@H]1O` [DeβM, decyl β-matoside], the “Swarming motility of rhlA mutant” value in test [1] (24 h) is listed as “did not exhibit any significant activation of swarming”.

These data come from patent publication US11357786B2, “Synthetic disugar hydrocarbons as natural analogs to control microbial behaviors” (Syracuse University, priority 2014, dated 2022).
